Holding throughout (assay): DTP human tumour cell line panel, 48 h
Assay [1] relates to PC-3 prostate.
The subject of assay [2] is UACC-257 melanoma.
Assay [3] deals with MDA-MB-435.
Assay [4] relates to HCT-15 colon.
Assay [5] has as its system RXF 393 renal.
In assay [6] the test system is RPMI-8226 leukemia.
Assay [7] relates to TK-10 renal.
The subject of assay [8] is MOLT-4 leukemia.
The subject of assay [9] is A498 renal.

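All cell lines were grown in 96-well plates and treated with compound for 48 hours. Abbreviation: GI50, concentration required for 50% inhibition of growth. The concentration for full growth arrest is given as TGI.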

The GI50 is the concentration that inhibits growth by half. The term TGI denotes the concentration giving total growth inhibition. A lower TGI goes with more potent growth arrest.

Turning to `O=C(C(=CN1CCN(C(=O)c2ccco2)C1=S)C(=O)c1ccccc1)c1ccccc1`, the GI50 is 23.6 µM in assay [1]; 11.7 µM in [2]; 7.24 µM in [3]; 2.63 µM in assay [4]; 5.84 µM in assay [5]; 8.41 µM in assay [6]. In addition, the GI50 in [7] is 6.87 µM; in [8] it was 15.2 µM. Further, the TGI is greater than 50 µM in assay [1]; 21.4 µM in assay [2]; 18.7 µM in assay [3]; 20.7 µM in assay [4]; 14.8 µM in assay [5]; greater than 50 µM in [6]. Also, the results for the TGI in [7] and in assay [8] were 22.1 µM and greater than 50 µM, respectively.
Consider `CSc1nnc(C(C#N)C#N)nn1`, for which the TGI in assay [9], in assay [2], in assay [4], in assay [5], in [6] and in assay [7] was greater than 100 µM each time. Besides, in assay [8], the TGI was greater than 100 µM.
Turning to `CCCCCCCCCCCCCS(=O)(=O)NCC(N)=O`, the TGI in [9], in assay [2], in assay [4], in assay [5] and in [7] was greater than 100 µM in each case.
With `CCN(CC)c1c(C)nnn1C1OC(COC(C)=O)C(OC(C)=O)C(OC(C)=O)C1OC(C)=O` (centres undefined), the TGI in [9] was greater than 100 µM; in [2] it was greater than 100 µM; in assay [4], greater than 100 µM; in assay [6], 78.3 µM; in assay [7] it was greater than 100 µM; in [8], greater than 100 µM.
With `COc1cc(O)c(C(=O)/C=C/c2ccc(OC)c(OCc3ccccc3)c2)c(OC)c1`, the TGI in assay [2], in assay [4], in assay [5], in assay [6], in [7] and in assay [8] was greater than 100 µM throughout.
Turning to `CC(=O)Nc1ccc(/C=c2\sc3nnc(-c4cccnc4)n3c2=O)cc1`, the TGI in [9] is greater than 100 µM; in assay [2] it was 49 µM; in assay [4], 35.9 µM; in assay [5] it was 37.2 µM; in assay [7], 57.3 µM; in assay [8] it was 64.3 µM.
As to `Cc1ccc(S(=O)(=O)C2CC2(Cl)Cl)cc1` (centres undefined), the TGI in assay [2] is 44 µM; in assay [4] it was 55.4 µM; in assay [5], 29.1 µM; in assay [7], greater than 100 µM; in [8], 42.1 µM.
With `CCN(CC)C(=S)SS(C)(=O)=O`, the TGI turned out to be 52.3 µM in assay [2]; 26.2 µM in assay [4]; 23.4 µM in assay [5]; 32.2 µM in [7]; 42.8 µM in assay [8].
Consider `O=C(N/C(=C\c1ccc(/C=C(\NC(=O)c2ccccc2)c2nc3c(O)nc(S)nc3[nH]2)cc1)c1nc2c(O)nc(S)nc2[nH]1)c1ccccc1`, for which the TGI in assay [9], in assay [2], in assay [4], in [5], in [6] and in assay [7] was greater than 100 µM in each case. Further, the TGI in [8] was greater than 100 µM.
On to `NC(=O)c1ncn(C2OC(CO)C(O)C2O)c1O` (centres undefined), for which the TGI in assay [9], in [4], in assay [5], in assay [6], in assay [7] and in assay [8] was greater than 100 µM throughout.
As to `O=C1[C@@H]2C(c3ccccc3[N+](=O)[O-])=NO[C@@H]2C(=O)N1c1ccc(Cc2ccc(N3C(=O)[C@H]4C(c5ccccc5[N+](=O)[O-])=NO[C@H]4C3=O)cc2)cc1`, the TGI in assay [9], in [2], in [4], in [5], in [6] and in assay [7] was greater than 100 µM in each case. In [8], this compound came in with a TGI greater than 100 µM.
On to `COc1ccc(C(=O)C(C(=O)C(=O)NCCCNC(=O)C(=O)C(C(=O)c2ccc(OC)cc2)c2ccc(OC)cc2)c2ccc(OC)cc2)cc1` (centres undefined), for which the TGI in [2], in assay [4], in assay [6], in [7] and in assay [8] was greater than 100 µM each time.
`Cc1ccc(Nc2nc(-c3ccc(-c4ccc([N+](=O)[O-])cc4)o3)cs2)cc1`: the TGI is 90 µM in [2]; greater than 100 µM in assay [4]; greater than 100 µM in assay [6]; greater than 100 µM in assay [7]; greater than 100 µM in assay [8].
For the compound `CC1=C2C=CC(=O)C[C@@]2(C)CCC1`, the TGI in assay [9], in [2], in assay [4], in assay [5], in [6] and in assay [7] was greater than 100 µM each time. In assay [8], this compound returned a TGI greater than 100 µM.
`CC(=O)[CH-]C(=O)c1ccccc1.CC(=O)[CH-]C(=O)c1ccccc1.CC(=O)[CH-]C(=O)c1ccccc1.[Ga+3]`: the GI50 was 24.7 µM in [9]; 16.2 µM in assay [2]; 18.2 µM in assay [4]; 29.1 µM in assay [5]; 12.1 µM in assay [6]; 24 µM in assay [7]. For the same compound, the GI50 in [8] is 9.64 µM. For the same compound, the TGI is 45.6 µM in [9]; 31.5 µM in assay [2]; greater than 100 µM in [4]; 48 µM in [5]; 37.1 µM in assay [6]; 68.6 µM in assay [7]. The compound further showed a TGI in [8] of 30.4 µM.
For the compound `CN(C)N=Nc1ccc(S(N)(=O)=O)cc1`, the TGI in assay [9], in assay [2], in [4], in assay [6], in assay [7] and in assay [8] was greater than 100 µM in each case.
For the compound `CN1CCN(c2nc(N)c(Br)c(Cl)n2)CC1`, the TGI in assay [2], in assay [4], in [5], in [6], in assay [7] and in [8] was greater than 100 µM in each case.
For `O=C(Oc1c(Cl)cc(Cl)cc1Cl)c1ccccc1Nc1ccnc(C(F)(F)F)c1`, the GI50 in assay [1] is 15 µM; in [2] it was 12.2 µM; in assay [4] it was 2.7 µM; in assay [5], 9.47 µM; in assay [7], 3.41 µM. The TGI in [1] is greater than 100 µM; in assay [2], 57.3 µM; in [4] it was 10.6 µM; in [5] it was greater than 100 µM; in [7] it was 28.4 µM.

The values above are taken from PubChem BioAssay (NCI).
